The values below come from patent US20230143604A1, “QW DOSING OF GIP RECEPTOR AGONIST PEPTIDE COMPOUNDS AND USES THEREOF” (TAKEDA PHARMACEUTICAL COMPANY LIMITED, priority 2020, published 2023).

Starred links: 1 amine or outer side, 2 acyl side, 3 side chain; linkers in the order of their positions; H or OH if unused. Non-standard residues stand in square brackets, D forms with d. Residues, ends and D or L forms follow the SMILES beside them. Groups on a side chain read outwards from the residue. *: point of attachment. C18 diacid = O=C(O)CCCCCCCCCCCCCCCCC(=O)*; γGlu = O=C(O)[C@H](CCC(=O)[*:2])N[*:1]; AEEA = NCCOCCOCC(=O)O; Aib = CC(C)(N)C(=O)O

A short description of the data set: physchem. A digest of the protocol:
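3 mg of peptide treated with 100 μL portions of 200 mM phosphate buffer pH 7.4, sonicating/vortexing up to 1 min, with further buffer added until fully dissolved. Solubility then quantified by HPLC.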

As a reminder, the solubility is the dissolved amount per volume that the medium holds. Low values mean a poorly soluble substance, high ones a readily soluble substance. For `CC[C@H](C)[C@H](NC(=O)[C@H](CO)NC(=O)[C@H](Cc1ccc(O)cc1)NC(=O)[C@H](CC(=O)O)NC(=O)[C@H](CO)NC(=O)[C@@H](NC(=O)[C@H](Cc1ccccc1)NC(=O)[C@@H](NC(=O)CNC(=O)[C@H](CCC(=O)O)NC(=O)C(C)(C)NC(=O)[C@@H](N)Cc1ccc(O)cc1)[C@@H](C)O)[C@@H](C)CC)C(=O)N[C@@H](C)C(=O)N[C@@H](CC(C)C)C(=O)N[C@@H](CC(=O)O)C(=O)N[C@@H](CCCCN)C(=O)NC(C)(C)C(=O)N[C@@H](CCCCNC(=O)COCCOCCNC(=O)COCCOCCNC(=O)CC[C@H](NC(=O)CCCCCCCCCCCCCCCCC(=O)O)C(=O)O)C(=O)N[C@@H](CCC(N)=O)C(=O)N[C@@H](C)C(=O)N[C@@H](CC(N)=O)C(=O)N[C@@H](Cc1ccccc1)C(=O)N[C@H](C(=O)N[C@@H](CCC(=O)O)C(=O)N[C@@H](Cc1c[nH]c2ccccc12)C(=O)N[C@@H](CC(C)C)C(=O)N[C@@H](CC(C)C)C(=O)N[C@@H](C)C(=O)N[C@@H](CCC(N)=O)C(=O)N[C@@H](CCCNC(=N)N)C(=O)NCC(=O)O)C(C)C` [Compound 163] (H-Y[Aib]EGTFISDYSIALDK[Aib]K([AEEA-AEEA-γGlu-C18 diacid])QANFVEWLLAQRG-OH), the solubility reads like this: (pH 7.4) ≥ 15 mg/mL; (pH 7.4, aqueous buffer) ≥ 30 mg/mL.

For `CC[C@H](C)[C@H](NC(=O)[C@H](CO)NC(=O)[C@H](Cc1ccc(O)cc1)NC(=O)[C@H](CC(=O)O)NC(=O)[C@H](CO)NC(=O)[C@@H](NC(=O)[C@H](Cc1ccccc1)NC(=O)[C@@H](NC(=O)CNC(=O)[C@H](CCC(=O)O)NC(=O)C(C)(C)NC(=O)[C@@H](N)Cc1ccc(O)cc1)[C@@H](C)O)[C@@H](C)CC)C(=O)N[C@@H](C)C(=O)NC(C)(C)C(=O)N[C@@H](CC(=O)O)C(=O)N[C@@H](CCCCN)C(=O)N[C@@H](C)C(=O)N[C@@H](CCCCNC(=O)COCCOCCNC(=O)COCCOCCNC(=O)CC[C@H](NC(=O)CCCCCCCCCCCCCCCCC(=O)O)C(=O)O)C(=O)N[C@@H](CCC(N)=O)C(=O)N[C@@H](CCC(N)=O)C(=O)N[C@@H](CC(=O)O)C(=O)N[C@@H](Cc1ccccc1)C(=O)N[C@H](C(=O)N[C@@H](CCC(=O)O)C(=O)N[C@@H](Cc1c[nH]c2ccccc12)C(=O)N[C@@H](CC(C)C)C(=O)N[C@@H](CC(C)C)C(=O)N[C@@H](C)C(=O)N[C@@H](CCC(N)=O)C(=O)N[C@@H](CCCNC(=N)N)C(=O)NCC(=O)O)C(C)C` [Compound 164] (H-Y[Aib]EGTFISDYSIA[Aib]DKAK([AEEA-AEEA-γGlu-C18 diacid])QQDFVEWLLAQRG-OH), the solubility was ≥ 15 mg/mL (pH 7.4) and ≥ 30 mg/mL (pH 7.4, aqueous buffer).

With `CC[C@H](C)[C@H](NC(=O)[C@H](CO)NC(=O)[C@H](Cc1ccc(O)cc1)NC(=O)[C@H](CC(=O)O)NC(=O)[C@H](CO)NC(=O)[C@@H](NC(=O)[C@H](Cc1ccccc1)NC(=O)[C@@H](NC(=O)CNC(=O)[C@H](CCC(=O)O)NC(=O)C(C)(C)NC(=O)[C@@H](N)Cc1ccc(O)cc1)[C@@H](C)O)[C@@H](C)CC)C(=O)N[C@@H](C)C(=O)NC(C)(C)C(=O)N[C@@H](CC(=O)O)C(=O)N[C@@H](CCCCN)C(=O)N[C@@H](C)C(=O)N[C@@H](CCCCNC(=O)COCCOCCNC(=O)COCCOCCNC(=O)CC[C@H](NC(=O)CCCCCCCCCCCCCCCCC(=O)O)C(=O)O)C(=O)N[C@@H](CCC(N)=O)C(=O)N[C@@H](C)C(=O)N[C@@H](CC(=O)O)C(=O)N[C@@H](Cc1ccccc1)C(=O)N[C@H](C(=O)N[C@@H](CCC(=O)O)C(=O)N[C@@H](Cc1c[nH]c2ccccc12)C(=O)N[C@@H](CC(C)C)C(=O)N[C@@H](CC(C)C)C(=O)N[C@@H](C)C(=O)N[C@@H](CCC(N)=O)C(=O)N[C@@H](CCCNC(=N)N)C(=O)NCC(=O)O)C(C)C` [Compound 165] (H-Y[Aib]EGTFISDYSIA[Aib]DKAK([AEEA-AEEA-γGlu-C18 diacid])QADFVEWLLAQRG-OH), the solubility runs as follows: (pH 7.4) ≥ 15 mg/mL; (pH 7.4, aqueous buffer) ≥ 30 mg/mL.

`CC[C@H](C)[C@H](NC(=O)[C@H](CO)NC(=O)[C@H](Cc1ccc(O)cc1)NC(=O)[C@H](CC(=O)O)NC(=O)[C@H](CO)NC(=O)[C@@H](NC(=O)[C@H](Cc1ccccc1)NC(=O)[C@@H](NC(=O)CNC(=O)[C@H](CCC(=O)O)NC(=O)C(C)(C)NC(=O)[C@@H](N)Cc1ccc(O)cc1)[C@@H](C)O)[C@@H](C)CC)C(=O)N[C@@H](C)C(=O)NC(C)(C)C(=O)N[C@@H](CC(=O)O)C(=O)N[C@@H](CCCCN)C(=O)N[C@H](C(=O)N[C@@H](CCCCNC(=O)COCCOCCNC(=O)COCCOCCNC(=O)CC[C@H](NC(=O)CCCCCCCCCCCCCCCCC(=O)O)C(=O)O)C(=O)N[C@@H](CCC(N)=O)C(=O)N[C@@H](C)C(=O)N[C@@H](CC(=O)O)C(=O)N[C@@H](Cc1ccccc1)C(=O)N[C@H](C(=O)N[C@@H](CCC(=O)O)C(=O)N[C@@H](Cc1c[nH]c2ccccc12)C(=O)N[C@@H](CC(C)C)C(=O)N[C@@H](CC(C)C)C(=O)N[C@@H](C)C(=O)N[C@@H](CCC(N)=O)C(=O)N[C@@H](CCCNC(=N)N)C(=O)NCC(=O)O)C(C)C)[C@@H](C)CC` [Compound 166] (H-Y[Aib]EGTFISDYSIA[Aib]DKIK([AEEA-AEEA-γGlu-C18 diacid])QADFVEWLLAQRG-OH): the solubility is, setting by setting: (pH 7.4) ≥ 15 mg/mL; (pH 7.4, aqueous buffer) ≥ 30 mg/mL.

Turning to `CC[C@H](C)[C@H](NC(=O)[C@H](Cc1ccccc1)NC(=O)[C@@H](NC(=O)CNC(=O)[C@H](CCC(=O)O)NC(=O)C(C)(C)NC(=O)[C@@H](N)Cc1ccc(O)cc1)[C@@H](C)O)C(=O)N[C@@H](CO)C(=O)N[C@@H](CC(=O)O)C(=O)N[C@@H](Cc1ccc(O)cc1)C(=O)N[C@@H](CO)C(=O)N[C@H](C(=O)NC(C)(C)C(=O)N[C@@H](CC(C)C)C(=O)N[C@@H](CC(=O)O)C(=O)N[C@@H](CCCCN)C(=O)N[C@@H](C)C(=O)N[C@@H](C)C(=O)N[C@@H](CCC(N)=O)C(=O)N[C@@H](CCC(N)=O)C(=O)N[C@@H](CCCCNC(=O)COCCOCCNC(=O)COCCOCCNC(=O)CC[C@H](NC(=O)CC[C@H](NC(=O)CCCCCCCCCCCCCCCCC(=O)O)C(=O)O)C(=O)O)C(=O)N[C@@H](Cc1ccccc1)C(=O)N[C@H](C(=O)N[C@@H](CCC(=O)O)C(=O)N[C@@H](Cc1c[nH]c2ccccc12)C(=O)N[C@@H](CC(C)C)C(=O)N[C@@H](CC(C)C)C(=O)N[C@@H](C)C(=O)N[C@@H](CCC(N)=O)C(=O)N[C@@H](CCCNC(=N)N)C(=O)NCC(=O)O)C(C)C)[C@@H](C)CC` [Compound 167] (H-Y[Aib]EGTFISDYSI[Aib]LDKAAQQK([AEEA-AEEA-γGlu-γGlu-C18 diacid])FVEWLLAQRG-OH), the solubility is, setting by setting: (pH 7.4) ≥ 15 mg/mL; (pH 7.4, aqueous buffer) ≥ 30 mg/mL.

With `CC[C@H](C)[C@H](NC(=O)[C@H](Cc1ccccc1)NC(=O)[C@@H](NC(=O)CNC(=O)[C@H](CCC(=O)O)NC(=O)C(C)(C)NC(=O)[C@@H](N)Cc1ccc(O)cc1)[C@@H](C)O)C(=O)N[C@@H](CO)C(=O)N[C@@H](CC(=O)O)C(=O)N[C@@H](Cc1ccc(O)cc1)C(=O)N[C@@H](CO)C(=O)N[C@H](C(=O)NC(C)(C)C(=O)N[C@@H](CC(C)C)C(=O)N[C@@H](CC(=O)O)C(=O)N[C@@H](CCCCN)C(=O)N[C@@H](C)C(=O)N[C@@H](C)C(=O)N[C@@H](CCC(N)=O)C(=O)N[C@@H](C)C(=O)N[C@@H](CCCCNC(=O)COCCOCCNC(=O)COCCOCCNC(=O)CC[C@H](NC(=O)CC[C@H](NC(=O)CCCCCCCCCCCCCCCCC(=O)O)C(=O)O)C(=O)O)C(=O)N[C@@H](Cc1ccccc1)C(=O)N[C@H](C(=O)N[C@@H](CCC(=O)O)C(=O)N[C@@H](Cc1c[nH]c2ccccc12)C(=O)N[C@@H](CC(C)C)C(=O)N[C@@H](CC(C)C)C(=O)N[C@@H](C)C(=O)N[C@@H](CCC(N)=O)C(=O)N[C@@H](CCCNC(=N)N)C(=O)NCC(=O)O)C(C)C)[C@@H](C)CC` [Compound 168] (H-Y[Aib]EGTFISDYSI[Aib]LDKAAQAK([AEEA-AEEA-γGlu-γGlu-C18 diacid])FVEWLLAQRG-OH), the solubility (pH 7.4) was ≥ 15 mg/mL and the solubility (pH 7.4, aqueous buffer) was ≥ 30 mg/mL.

Regarding `CC[C@H](C)[C@H](NC(=O)[C@H](Cc1ccccc1)NC(=O)[C@@H](NC(=O)CNC(=O)[C@H](CCC(=O)O)NC(=O)C(C)(C)NC(=O)[C@@H](N)Cc1ccc(O)cc1)[C@@H](C)O)C(=O)N[C@@H](CO)C(=O)N[C@@H](CC(=O)O)C(=O)N[C@@H](Cc1ccc(O)cc1)C(=O)N[C@@H](CO)C(=O)N[C@H](C(=O)NC(C)(C)C(=O)N[C@@H](CC(C)C)C(=O)N[C@@H](CC(=O)O)C(=O)N[C@@H](CCCCN)C(=O)N[C@@H](C)C(=O)N[C@@H](CCCCNC(=O)COCCOCCNC(=O)COCCOCCNC(=O)CC[C@H](NC(=O)CCCCCCCCCCCCCCCCC(=O)O)C(=O)O)C(=O)N[C@@H](CCC(N)=O)C(=O)N[C@@H](CCC(N)=O)C(=O)N[C@@H](CC(=O)O)C(=O)N[C@@H](Cc1ccccc1)C(=O)N[C@H](C(=O)N[C@@H](CCC(=O)O)C(=O)N[C@@H](Cc1c[nH]c2ccccc12)C(=O)N[C@@H](CC(C)C)C(=O)N[C@@H](CC(C)C)C(=O)N[C@@H](C)C(=O)N[C@@H](CCC(N)=O)C(=O)N[C@@H](CCCNC(=N)N)C(=O)NCC(=O)O)C(C)C)[C@@H](C)CC` [Compound 169] (H-Y[Aib]EGTFISDYSI[Aib]LDKAK([AEEA-AEEA-γGlu-C18 diacid])QQDFVEWLLAQRG-OH), the solubility was ≥ 15 mg/mL (pH 7.4) and ≥ 30 mg/mL (pH 7.4, aqueous buffer).

Consider `CC[C@H](C)[C@H](NC(=O)[C@H](Cc1ccccc1)NC(=O)[C@@H](NC(=O)CNC(=O)[C@H](CCC(=O)O)NC(=O)C(C)(C)NC(=O)[C@@H](N)Cc1ccc(O)cc1)[C@@H](C)O)C(=O)N[C@@H](CO)C(=O)N[C@@H](CC(=O)O)C(=O)N[C@@H](Cc1ccc(O)cc1)C(=O)N[C@@H](CO)C(=O)N[C@H](C(=O)NC(C)(C)C(=O)N[C@@H](CC(C)C)C(=O)N[C@@H](CC(=O)O)C(=O)N[C@@H](CCCCN)C(=O)N[C@@H](C)C(=O)N[C@@H](CCCCNC(=O)COCCOCCNC(=O)COCCOCCNC(=O)CC[C@H](NC(=O)CCCCCCCCCCCCCCCCC(=O)O)C(=O)O)C(=O)N[C@@H](CCC(N)=O)C(=O)N[C@@H](CCC(N)=O)C(=O)N[C@@H](CC(=O)O)C(=O)N[C@@H](Cc1ccccc1)C(=O)N[C@H](C(=O)N[C@@H](CC(N)=O)C(=O)N[C@@H](Cc1c[nH]c2ccccc12)C(=O)N[C@@H](CC(C)C)C(=O)N[C@@H](CC(C)C)C(=O)N[C@@H](C)C(=O)N[C@@H](CCC(N)=O)C(=O)N[C@@H](CCCNC(=N)N)C(=O)NCC(=O)O)C(C)C)[C@@H](C)CC` [Compound 170] (H-Y[Aib]EGTFISDYSI[Aib]LDKAK([AEEA-AEEA-γGlu-C18 diacid])QQDFVNWLLAQRG-OH), for which the solubility runs as follows: (pH 7.4) ≥ 15 mg/mL; (pH 7.4, aqueous buffer) ≥ 30 mg/mL.
